According to patent publication US5635477A, “Cyclic compounds useful as inhibitors of platelet glycoprotein IIB/IIIA” (The DuPont Merck Pharmaceutical Company, priority 1995, dated 1997):
Non-standard residues stand in square brackets, D forms with d. Residues, ends and D or L forms follow the SMILES beside them. NMePhe(4-CH2NH2) = CN[C@@H](Cc1ccc(CN)cc1)C(=O)O; NMeR = CN[C@@H](CCCNC(=N)N)C(=O)O; dPhg = N[C@@H](C(=O)O)c1ccccc1; dNle = CCCC[C@@H](N)C(=O)O; 3Amb = NCc1cccc(C(=O)O)c1; dAbu = CC[C@@H](N)C(=O)O; βAla = NCCC(=O)O; Sar = CNCC(=O)O

Molecular target: agonist-induced platelet aggregation (Homo sapiens, UniProt P05106+P08514)
Sequence (P08514 32-1039): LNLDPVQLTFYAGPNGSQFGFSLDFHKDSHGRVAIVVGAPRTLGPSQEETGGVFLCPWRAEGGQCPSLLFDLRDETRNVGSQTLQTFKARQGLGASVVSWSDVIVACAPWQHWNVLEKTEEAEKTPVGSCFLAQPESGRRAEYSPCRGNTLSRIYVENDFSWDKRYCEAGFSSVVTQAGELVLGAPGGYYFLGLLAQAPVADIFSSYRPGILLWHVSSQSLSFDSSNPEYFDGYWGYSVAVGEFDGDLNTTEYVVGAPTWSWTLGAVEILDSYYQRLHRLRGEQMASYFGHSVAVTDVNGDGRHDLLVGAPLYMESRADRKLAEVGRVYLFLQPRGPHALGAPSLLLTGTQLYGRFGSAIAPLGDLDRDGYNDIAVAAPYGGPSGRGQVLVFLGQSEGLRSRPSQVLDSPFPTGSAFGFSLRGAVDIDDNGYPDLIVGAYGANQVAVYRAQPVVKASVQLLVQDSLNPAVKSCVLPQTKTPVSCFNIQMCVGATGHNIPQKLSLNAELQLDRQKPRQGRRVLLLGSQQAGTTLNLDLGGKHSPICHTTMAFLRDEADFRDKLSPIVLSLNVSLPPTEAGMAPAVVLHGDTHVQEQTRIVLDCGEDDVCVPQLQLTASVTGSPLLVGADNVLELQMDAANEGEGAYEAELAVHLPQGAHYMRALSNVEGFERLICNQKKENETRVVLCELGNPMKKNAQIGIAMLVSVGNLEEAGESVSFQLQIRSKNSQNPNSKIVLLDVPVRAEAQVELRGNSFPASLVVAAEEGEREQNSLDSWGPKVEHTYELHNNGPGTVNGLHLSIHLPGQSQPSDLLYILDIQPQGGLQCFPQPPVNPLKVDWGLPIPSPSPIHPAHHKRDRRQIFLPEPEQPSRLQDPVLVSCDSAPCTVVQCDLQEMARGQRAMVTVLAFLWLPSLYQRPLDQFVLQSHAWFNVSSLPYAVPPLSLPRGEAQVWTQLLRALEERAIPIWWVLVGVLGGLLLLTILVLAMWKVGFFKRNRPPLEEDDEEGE
Sequence (P05106 27-788): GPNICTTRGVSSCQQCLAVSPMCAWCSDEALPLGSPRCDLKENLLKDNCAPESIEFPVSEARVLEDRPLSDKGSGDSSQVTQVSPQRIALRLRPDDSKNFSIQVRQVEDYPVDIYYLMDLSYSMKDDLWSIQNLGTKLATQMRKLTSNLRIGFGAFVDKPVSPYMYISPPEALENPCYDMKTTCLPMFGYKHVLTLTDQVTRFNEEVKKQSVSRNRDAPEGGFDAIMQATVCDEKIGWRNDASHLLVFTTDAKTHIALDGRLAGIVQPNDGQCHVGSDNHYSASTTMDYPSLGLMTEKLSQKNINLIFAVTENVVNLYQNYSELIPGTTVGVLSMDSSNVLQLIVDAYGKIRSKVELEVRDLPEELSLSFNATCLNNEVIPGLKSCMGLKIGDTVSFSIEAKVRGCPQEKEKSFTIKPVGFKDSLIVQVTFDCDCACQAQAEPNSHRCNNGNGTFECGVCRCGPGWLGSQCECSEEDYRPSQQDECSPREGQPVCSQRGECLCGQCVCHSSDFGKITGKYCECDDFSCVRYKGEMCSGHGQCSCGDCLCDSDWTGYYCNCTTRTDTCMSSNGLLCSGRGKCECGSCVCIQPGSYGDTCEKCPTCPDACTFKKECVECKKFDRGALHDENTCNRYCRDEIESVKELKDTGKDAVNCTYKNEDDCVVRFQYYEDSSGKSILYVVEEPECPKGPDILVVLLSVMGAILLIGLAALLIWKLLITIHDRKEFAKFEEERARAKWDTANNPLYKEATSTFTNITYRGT
Assay: Platelet Aggregation Assay
Type: cell-based
Details: human PRP; agonist-induced aggregation
Protocol: Blood was collected into 10 ml citrated Vacutainer tubes.

Row | SMILES | IC50 [µM]
1 | CC(C)[C@H]1NC(=O)c2cccc(c2)CNC(=O)C(C)(CC(=O)O)NC(=O)CNC(=O)[C@H](CCCNC(=N)N)N(C)C1=O (single isomer, unassigned) [Example 63, cyclo-(D-Val-NMeArg-Gly-α-MeAsp-Mamb)] | 1 to 10
2 | CC(C)[C@H]1NC(=O)c2cccc(c2)CNC(=O)C(C)(CC(=O)O)NC(=O)CNC(=O)[C@H](CCCNC(=N)N)N(C)C1=O (single isomer, unassigned) [Example 63a, cyclo-(D-Val-NMeArg-Gly-α-MeAsp-Mamb)] | 10 to 100
3 | CC(C)[C@H]1NC(=O)c2ccc3c(c2)C(CCC3)NC(=O)[C@H](CC(=O)O)NC(=O)CNC(=O)[C@H](CCCNC(=N)N)N(C)C1=O (single isomer, unassigned) [Example 89a, cyclo-(D-Val-NMeArg-Gly-Asp-aminotetralincarboxylic acid)] | < 1
4 | CC(C)[C@H]1NC(=O)c2ccc3c(c2)C(CCC3)NC(=O)[C@H](CC(=O)O)NC(=O)CNC(=O)[C@H](CCCNC(=N)N)N(C)C1=O (single isomer, unassigned) [Example 89b, cyclo-(D-Val-NMeArg-Gly-Asp-aminotetralincarboxylic acid)] | < 1
5 | CN1C(=O)CNC(=O)c2cccc(c2)CNC(=O)[C@H](CC(=O)O)NC(=O)CNC(=O)[C@@H]1CCCNC(=N)N [Example 1, cyclo-(Gly-NMeArg-Gly-Asp-Mamb)] (cyclo([NMeR]GD[3Amb]G)) | < 1
6 | C[C@H]1NC(=O)c2cccc(c2)CNC(=O)[C@H](CC(=O)O)NC(=O)CNC(=O)[C@H](CCCNC(=N)N)N(C)C1=O [Example 2, cyclo-(D-Ala-NMeArg-Gly-Asp-Mamb)] (cyclo([NMeR]GD[3Amb][dA])) | < 1
7 | CC(C)[C@H]1NC(=O)c2cccc(c2)CNC(=O)[C@H](CC(=O)O)NC(=O)CNC(=O)[C@@H](CCCNC(=N)N)N(C)C1=O [Example 4b, cyclo-(D-Val-D-NMeArg-Gly-Asp-Mamb)] | 1 to 10
8 | CC(C)C[C@H]1NC(=O)c2cccc(c2)CNC(=O)[C@H](CC(=O)O)NC(=O)CNC(=O)[C@H](CCCNC(=N)N)N(C)C1=O [Example 5, cyclo-(D-Leu-NMeArg-Gly-Asp-Mamb)] (cyclo([NMeR]GD[3Amb][dL])) | < 1
9 | CCCC[C@H]1NC(=O)c2cccc(c2)CNC(=O)[C@H](CC(=O)O)NC(=O)CNC(=O)[C@H](CCCNC(=N)N)N(C)C1=O [Example 7, cyclo-(D-Nle-NMeArg-Gly-Asp-Mamb)] (cyclo([NMeR]GD[3Amb][dNle])) | < 1
10 | CN1C(=O)[C@@H](c2ccccc2)NC(=O)c2cccc(c2)CNC(=O)[C@H](CC(=O)O)NC(=O)CNC(=O)[C@@H]1CCCNC(=N)N [Example 11, cyclo-(D-Phg-NMeArg-Gly-Asp-Mamb)] (cyclo([NMeR]GD[3Amb][dPhg])) | < 1
11 | CN1C(=O)[C@@H](Cc2ccccc2)NC(=O)c2cccc(c2)CNC(=O)[C@H](CC(=O)O)NC(=O)CNC(=O)[C@@H]1CCCNC(=N)N [Example 12, cyclo-(D-Phe-NMeArg-Gly-Asp-Mamb)] (cyclo([NMeR]GD[3Amb][dF])) | < 1
12 | CN1C(=O)[C@@H](CCCCN)NC(=O)c2cccc(c2)CNC(=O)[C@H](CC(=O)O)NC(=O)CNC(=O)[C@@H]1CCCNC(=N)N [Example 13f, cyclo-(D-Lys-NMeArg-Gly-Asp-Mamb)] (cyclo([NMeR]GD[3Amb][dK])) | < 1
13 | CC[C@@H](C)[C@H]1NC(=O)c2cccc(c2)CNC(=O)[C@H](CC(=O)O)NC(=O)CNC(=O)[C@H](CCCNC(=N)N)N(C)C1=O [Example 13r, cyclo-(D-Ile-NMeArg-Gly-Asp-Mamb)] (cyclo([NMeR]GD[3Amb][dI])) | < 1
14 | CN1CC(=O)N(C)[C@@H](CCCNC(=N)N)C(=O)NCC(=O)N[C@@H](CC(=O)O)C(=O)NCc2cccc(c2)C1=O [Example 18, cyclo-(NMeGly-NMeArg-Gly-Asp-Mamb)] (cyclo([NMeR]GD[3Amb][Sar])) | < 1
15 | CN1C(=O)[C@H]2CCCN2C(=O)c2cccc(c2)CNC(=O)[C@H](CC(=O)O)NC(=O)CNC(=O)[C@@H]1CCCNC(=N)N [Example 25, cyclo-(D-Pro-NMeArg-Gly-Asp-Mamb)] (cyclo([NMeR]GD[3Amb][dP])) | < 1
16 | CN1C(=O)CCNC(=O)c2cccc(c2)CNC(=O)[C@H](CC(=O)O)NC(=O)CNC(=O)[C@@H]1CCCNC(=N)N [Example 28c, cyclo-(b-Ala-NMeArg-Gly-Asp-Mamb)] (cyclo([NMeR]GD[3Amb][βAla])) | < 1
17 | CN1C(=O)[C@@H](Cc2ccc(O)cc2)NC(=O)c2cccc(c2)CNC(=O)[C@H](CC(=O)O)NC(=O)CNC(=O)[C@@H]1CCCNC(=N)N [Example 28f, cyclo-(D-Tyr-NMeArg-Gly-Asp-Mamb)] (cyclo([NMeR]GD[3Amb][dY])) | < 1
18 | N=C(N)NCCC[C@@H]1NC(=O)CNC(=O)c2cccc(c2)CNC(=O)[C@H](CC(=O)O)NC(=O)CNC1=O [Example 29, cyclo-(Gly-Arg-Gly-Asp-Mamb)] (cyclo(RGD[3Amb]G)) | 1 to 10
19 | C[C@H]1NC(=O)c2cccc(c2)CNC(=O)[C@H](CC(=O)O)NC(=O)CNC(=O)[C@H](CCCNC(=N)N)NC1=O [Example 30, cyclo-(D-Ala-Arg-Gly-Asp-Mamb)] (cyclo(RGD[3Amb][dA])) | 1 to 10
20 | CC(C)[C@H]1NC(=O)c2cccc(c2)CNC(=O)[C@H](CC(=O)O)NC(=O)CNC(=O)[C@H](CCCNC(=N)N)NC1=O [Example 32, cyclo-(D-Val-Arg-Gly-Asp-Mamb)] | 1 to 10
21 | CC(C)C[C@H]1NC(=O)c2cccc(c2)CNC(=O)[C@H](CC(=O)O)NC(=O)CNC(=O)[C@H](CCCNC(=N)N)NC1=O [Example 33, cyclo-(D-Leu-Arg-Gly-Asp-Mamb)] (cyclo(RGD[3Amb][dL])) | 1 to 10
22 | CC[C@H]1NC(=O)c2cccc(c2)CNC(=O)[C@H](CC(=O)O)NC(=O)CNC(=O)[C@H](CCCNC(=N)N)NC1=O [Example 34, cyclo-(D-Abu-Arg-Gly-Asp-Mamb)] (cyclo(RGD[3Amb][dAbu])) | 1 to 10
23 | N=C(N)NCCC[C@@H]1NC(=O)[C@@H](CO)NC(=O)c2cccc(c2)CNC(=O)[C@H](CC(=O)O)NC(=O)CNC1=O [Example 35, cyclo-(D-Ser-Arg-Gly-Asp-Mamb)] (cyclo(RGD[3Amb][dS])) | 1 to 10
24 | N=C(N)NCCC[C@@H]1NC(=O)[C@@H](Cc2ccccc2)NC(=O)c2cccc(c2)CNC(=O)[C@H](CC(=O)O)NC(=O)CNC1=O [Example 36, cyclo-(D-Phe-Arg-Gly-Asp-Mamb)] (cyclo(RGD[3Amb][dF])) | 10 to 100
25 | N=C(N)NCCC[C@@H]1NC(=O)[C@H](Cc2ccccc2)NC(=O)c2cccc(c2)CNC(=O)[C@H](CC(=O)O)NC(=O)CNC1=O [Example 37, cyclo-(Phe-Arg-Gly-Asp-Mamb)] (cyclo(RGD[3Amb]F)) | 10 to 100
26 | CC(C)[C@H]1NC(=O)c2cccc(c2)CNC(=O)[C@H](CC(=O)O)NC(=O)CNC(=O)[C@H](Cc2ccc(CN)cc2)N(C)C1=O [Example 40, cyclo-(D-Val-NMeAmf-Gly-Asp-Mamb)] (cyclo([dV][NMePhe(4-CH2NH2)]GD[3Amb])) | < 1
27 | CC(C)[C@H]1NC(=O)c2cccc(c2)CNC(=O)[C@H](CC(=O)O)NC(=O)CCNC(=O)[C@H](CCCNC(=N)N)N(C)C1=O [Example 54, cyclo-(D-Val-NMeArg-b-Ala-Asp-Mamb)] (cyclo([3Amb][dV][NMeR][βAla]D)) | 1 to 10
